Here are results for 14 compounds from patent US9278942B2, “Non-steroidal compounds as androgen receptor modulators” (FLX Discoveries Oy, priority 2011, dated 2016).

Like-named read-outs stand apart in the source and are kept apart here.

Data set [1] deals with T1, human AR (Homo sapiens, UniProt P10275).
T1 construct: expressed in transfected cells; host or cells: COS-1
T1 sequence (P10275 1-920): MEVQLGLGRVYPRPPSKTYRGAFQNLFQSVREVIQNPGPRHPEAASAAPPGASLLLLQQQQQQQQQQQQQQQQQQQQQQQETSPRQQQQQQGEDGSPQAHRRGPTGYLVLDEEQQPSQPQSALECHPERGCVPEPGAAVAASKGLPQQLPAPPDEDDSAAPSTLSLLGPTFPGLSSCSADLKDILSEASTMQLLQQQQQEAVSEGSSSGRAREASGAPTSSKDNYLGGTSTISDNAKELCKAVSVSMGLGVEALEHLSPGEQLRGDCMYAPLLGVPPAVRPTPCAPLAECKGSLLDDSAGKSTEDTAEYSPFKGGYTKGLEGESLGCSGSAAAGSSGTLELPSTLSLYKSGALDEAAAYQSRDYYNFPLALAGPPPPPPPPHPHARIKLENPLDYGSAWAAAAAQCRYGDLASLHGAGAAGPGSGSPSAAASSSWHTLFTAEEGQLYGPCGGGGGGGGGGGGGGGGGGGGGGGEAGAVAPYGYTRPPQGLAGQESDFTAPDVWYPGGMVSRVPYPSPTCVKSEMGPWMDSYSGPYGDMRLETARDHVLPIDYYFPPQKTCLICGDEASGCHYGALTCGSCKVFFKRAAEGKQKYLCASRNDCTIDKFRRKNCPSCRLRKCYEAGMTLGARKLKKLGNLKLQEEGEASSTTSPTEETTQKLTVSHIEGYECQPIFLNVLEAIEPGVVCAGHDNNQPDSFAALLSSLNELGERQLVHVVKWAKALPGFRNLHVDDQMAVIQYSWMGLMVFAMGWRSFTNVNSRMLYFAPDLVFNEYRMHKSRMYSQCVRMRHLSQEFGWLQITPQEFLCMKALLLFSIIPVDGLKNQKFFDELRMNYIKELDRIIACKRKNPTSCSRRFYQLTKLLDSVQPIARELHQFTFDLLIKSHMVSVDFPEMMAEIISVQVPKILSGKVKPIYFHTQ
In words: Competitive AR binding assay against [3H]-R1881 in transiently transfected COS-1 cells. The conditions noted are these: compound 13.4 μM, [3H]-R1881 1.34 nM, complete inhibition equals 100%; for inhibition at 13.4 µM: read-out: Inhibition of [3H]-R1881 binding at 1.34 nM ± S.D. In a few lines:
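COS-1 cells transfected 24 h with human AR vector, then after 36 h exposed 2 h at 37° C to compound at 10000-fold molar excess over 1.34 nM [3H]-R1881. Cell-bound radioactivity counted in triplicate; result given as % inhibition of labelled R1881 binding.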

Data set [2] concerns the target T1, human AR. Nature of the data set: AR antagonism assay: inhibition of transcriptional activation of AR (Probasin-luc reporter, COS-1 cells). As to conditions: compound 10.0 μM, relative luciferase response: 100% for testosterone (no antiandrogenic effect), 0% for complete antagonism; for remaining activity at 10 µM: COS-1, 18 h, read-out: AR antagonism against 100 nM testosterone ± S.D. In kind it is cell-based. The procedure, abridged: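 COS-1 cells transfected 24 h with human AR vector, Probasin-luc reporter and β-gal control, then exposed 18 h at 37 °C to 10 μM compound plus 100 nM testosterone. Luciferase read-out normalised to β-galactosidase activity and protein content.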

Consider `O=[N+]([O-])c1ccc(C2=NOC(Cc3ccccc3)(c3ccccc3)C2)cc1` (stereo not shown) [Example 17, 5-Benzyl-3-(4-nitrophenyl)-5-phenyl-4,5-dihydro-isoxazole], for which the melting point lay within 158 to 159.2 °C. `COc1ccc(C2=NOC(C)(Cc3ccccc3)C2)cc1` (stereo not shown) [Example 3ab, 5-Benzyl-3-(4-methoxyphenyl)-5-methyl-4,5-dihydro-isoxazole] came in with a melting point of 97.8 to 98.6 °C. Besides, the inhibition at 13.4 µM in data set [1] (Table 1) came to 49.6 ± 2%. Consider `Clc1ccc(C2=NOC(Cc3ccccc3)(c3ccccc3)C2)cc1` (stereo not shown) [Example 16, 5-Benzyl-3-(4-chlorophenyl)-5-phenyl-4,5-dihydro-isoxazole], for which the melting point was 120.3 to 122.1 °C. On the same count and under the same terms, the value for `N#Cc1ccc(C2=NOC(Cc3ccccc3)(c3ccccc3)C2)cc1` (stereo not shown) [Example 18, 4-(5-Benzyl-5-phenyl-4,5-dihydro-isoxazol-3-yl)-benzonitrile] was 104.5 to 107 °C; that for `COc1ccc(C2=NOC(Cc3ccccc3)(c3ccccc3)C2)cc1` (stereo not shown) [Example 14, 5-Benzyl-3-(4-methoxyphenyl)-5-phenyl-4,5-dihydro-isoxazole] was 139.3 to 141 °C. Compound `Fc1ccccc1C1=NOC(Cc2ccccc2)(c2ccccc2)C1` (stereo not shown) [Example 15ab, 5-Benzyl-3-(2-fluorophenyl)-5-phenyl-4,5-dihydro-isoxazole] came in with a melting point of 134.3 to 135.2 °C. In addition, the inhibition at 13.4 µM in data set [1] (Table 1) turned out to be 49.5 ± 4.3%. Consider `COc1ccccc1C1=NOC(Cc2ccccc2)(c2ccccc2)C1` (stereo not shown) [Example 12, 5-Benzyl-3-(2-methoxyphenyl)-5-phenyl-4,5-dihydro-isoxazole], for which the melting point was in the range of 109.3 to 110.2 °C. Take `O=[N+]([O-])c1ccc(C2=NOC3CCCCCC23)c(C(F)(F)F)c1` (stereo not shown) [Example 42b, 3-(4-Nitro-2-trifluoromethyl-phenyl)-4,5,6,7,8,8a-hexahydro-3aH-cyclohepta[d]isoxazole]: the entries for the “Inhibition of [3H]-R1881 binding at 1.34 nM ± S.D.” value in data set [1] (Table 2) and in data set [1] (Table 3) were 89.5 ± 2.0% and 89.3 ± 4.8%, respectively. Further, the “AR antagonism against 100 nM testosterone ± S.D.” value in data set [2] stood at 25.5 ± 1.5%.

The compound `COc1cccc(C2=NOC(Cc3ccccc3)(c3ccccc3)C2)c1` (stereo not shown) [Example 13, 5-Benzyl-5-phenyl-3-(3-methoxyphenyl)-4,5-dihydro-isoxazole] showed a melting point of 94.4 to 95.2 °C.

As for `Fc1ccc(C2=NOC3CCCC23)c(C(F)(F)F)c1` (stereo not shown) [Example 20a, 3-(4-Fluoro-2-trifluoromethyl-phenyl)-4,5,6,6a-tetrahydro-3aH-cyclopenta[d]isoxazole], the inhibition at 13.4 µM in data set [1] (Table 3) amounted to 89.3 ± 3.8%. Besides, in data set [2], the remaining activity at 10 µM was found to be 23.2 ± 0.5%. As for `N#Cc1ccc(C2=NOC3CCCCCC23)cc1C(F)(F)F` (stereo not shown) [Example 90ab, 4-(4,5,6,7,8,8a-Hexahydro-3aH-cyclohepta[d]isoxazol-3-yl)-2-trifluoromethyl-benzonitrile], in data set [1] (Table 2), the inhibition at 13.4 µM is 98.7 ± 0.6%. Also, the remaining activity at 10 µM in data set [2] came out at 12.6 ± 0.7%. In turn, `Oc1ccc(C2=NOC(Cc3ccccc3)(c3ccccc3)C2)cc1` (stereo not shown) [Example 80, 5-Benzyl-3-(4-hydroxyphenyl)-5-phenyl-4,5-dihydro-isoxazole] displayed a melting point of 151.3 to 153.9 °C. For `N#Cc1ccc(C2=NOC3CCCCC23)c(C(F)(F)F)c1` (stereo not shown) [Example 89b, 4-(3a,4,5,6,7,7a-Hexahydro-benzo[d]isoxazol-3-yl)-3-trifluoromethyl benzonitrile], the “Inhibition of [3H]-R1881 binding at 1.34 nM ± S.D.” value in data set [1] (Table 2) is 83.6 ± 0.9%. Also, the “AR antagonism against 100 nM testosterone ± S.D.” value in data set [2] was 20.3 ± 1.7%.

The compound `CC1(Cc2ccccc2)CC(c2ccc3ccccc3c2)=NO1` (stereo not shown) [Example 9ab, 5-Benzyl-3-naphthalen-2-yl-5-methyl-4,5-dihydro-isoxazole] returned a melting point of 144.8 to 146.3 °C. The inhibition at 13.4 µM in data set [1] (Table 1) amounted to 63.7 ± 1.5%.
